{"source": "the Kinase Knowledgebase extract (Sharma et al. 2016)"}
{"molecular_target": "MAPK14;MAPK11;MAPK12 (human) (UniProt Q16539)", "assay": "Inhibition of p38 Kinase Activity", "units": {"IC50": "µM"}}
{"smiles": "Cc1c(Nc2nc(Cl)nc(NCC(C)c3ccccc3)n2)ccc2ncsc12", "note": "(stereo unspecified)", "IC50": "< 10"}
{"smiles": "CNC(=O)CCC(=O)N1CCN(c2nc(NCC3CC[C@H]4C[C@@H]3C4(C)C)nc(Nc3ccc4ncsc4c3)n2)CC1", "note": "(stereo partly specified)", "IC50": "< 10"}
{"smiles": "CN(CCN(C)c1nc(NCC2CCC3CC2C3(C)C)nc(Nc2ccc3ncsc3c2)n1)C(=O)CCC(=O)O", "note": "(stereo unspecified)", "IC50": "< 10"}
{"smiles": "CC(C)c1nc(Cl)nc(Nc2ccc3ncsc3c2)n1", "IC50": "< 10"}
{"smiles": "Cc1ccc(C(=O)NC2CCCCC2)cc1Nc1nc(N[C@H]2CCNC2)nc(N(C)CC(C)(C)C)n1", "IC50": "< 1"}
{"smiles": "CONC(=O)c1ccc(C)c(Nc2nc(NCc3ccc(Cl)c(Cl)c3)nc(N(C)CC(C)(C)C)n2)c1", "IC50": "< 1"}
{"smiles": "CNCCN(C)c1nc(NCc2ccc(Cl)c(Cl)c2)nc(Nc2ccc3ncsc3c2)n1", "IC50": "< 10"}
{"smiles": "COCCN1CCC(Nc2nc(Nc3cc(C(N)=O)ccc3C)nc(N(C)CC(C)C)n2)C1", "note": "(stereo unspecified)", "IC50": "< 1"}
{"smiles": "COc1ccc(NC(=O)c2ccc(C)c(Nc3nc(N[C@H]4CCNC4)nc(N(C)CC(C)(C)C)n3)c2)cc1", "IC50": "< 1"}
{"smiles": "CONC(=O)c1ccc(C)c(Nc2nc(N[C@@H]3CCCNC3=O)nc(N(C)CC(C)(C)C)n2)c1", "IC50": "< 1"}
{"smiles": "CCCCNC(=O)c1ccc(C)c(Nc2nc(N[C@H]3CCNC3)nc(N(C)CC(C)(C)C)n2)c1", "IC50": "< 1"}
{"smiles": "Cc1ccc(C(N)=O)cc1Nc1nc(N[C@H]2CCN(C(C)(C)C)C2)nc(N(C)CC(C)(C)C)n1", "IC50": "< 1"}
{"smiles": "Cc1cccc(CN2CC[C@H](Nc3nc(Nc4cc(C(N)=O)ccc4C)nc(N(C)CC(C)C)n3)C2)c1", "IC50": "< 1"}
{"smiles": "CONC(=O)c1ccc(C)c(Nc2nc(NCCCn3ccnc3)nc(N(C)CC(C)(C)C)n2)c1", "IC50": "< 1"}
{"smiles": "NC(=O)CNc1nc(Nc2ccc3ncsc3c2)nc(NC2CCc3ccccc32)n1", "note": "(stereo unspecified)", "IC50": "< 10"}
{"smiles": "Cc1ccc2ncn(-c3nc(NCCOC(C)C)cc(N(C)C)n3)c2c1", "IC50": "< 10"}
{"smiles": "CN(CC1CCC2CC1C2(C)C)c1nc(Nc2ccc3ncsc3c2)nc(N2CCNCC2)n1", "note": "(stereo unspecified)", "IC50": "< 10"}
{"smiles": "CCCC1(C)CCN(c2nc(Nc3cc(C(N)=O)ccc3C)nc(N[C@@H]3CCNC3)n2)C1", "note": "(stereo partly specified)", "IC50": "< 1"}
{"smiles": "Cc1ccc(C(N)=O)cc1Nc1nc(N[C@H]2CCCNC2)nc(N(C)CC(C)C)n1", "IC50": "< 1"}
{"smiles": "Cc1ccc(C(N)=O)cc1Nc1cc(N(C)CC(C)C)nc(N[C@H]2CCNC2)n1", "IC50": "< 1"}
{"smiles": "CONC(=O)c1ccc(C)c(Nc2nc(N(C)CC(C)(C)C)nc(N3CCCN(C)CC3)n2)c1", "IC50": "< 1"}
{"smiles": "COC(=O)CC(CNc1nc(Cl)nc(Nc2ccc3ncsc3c2)n1)c1ccc(Cl)cc1", "note": "(stereo unspecified)", "IC50": "< 10"}
{"smiles": "CC(CNc1nc(Nc2ccc3ncsc3c2)nc(N(C)CCCN(C)C(=O)c2ccco2)n1)c1ccccc1", "note": "(stereo unspecified)", "IC50": "< 10"}
{"smiles": "CONC(=O)c1ccc(C)c(Nc2nc(NCc3ccccc3)nc(N(C)CC(C)(C)C)n2)c1", "IC50": "< 1"}
{"smiles": "CCONC(=O)c1ccc(C)c(Nc2cc(N3CCCN(C)CC3)nc(N(C)CC(C)(C)C)n2)c1", "IC50": "< 1"}
{"smiles": "Cc1ccc(C(N)=O)cc1Nc1nc(NCCc2ccc(O)cc2)nc(N[C@H]2CCNC2)n1", "IC50": "< 1"}
{"smiles": "CNCCN(C)c1nc(NC[C@@H]2CC[C@H]3C[C@@H]2C3(C)C)nc(Nc2ccc3ncsc3c2)n1", "IC50": "< 10"}
{"smiles": "Cc1ccc(C(N)=O)cc1Nc1nc(N[C@H]2CCN(C3CCCC3)C2)nc(N(C)CC(C)C)n1", "IC50": "< 1"}
{"smiles": "Cc1ccc(C(N)=O)cc1Nc1nc(NC2CCN(Cc3ccccn3)C2)nc(N(C)CC(C)C)n1", "note": "(stereo unspecified)", "IC50": "< 1"}
{"smiles": "Cc1ccc(C(=O)NCCC(C)C)cc1Nc1nc(N[C@H]2CCNC2)nc(N(C)CC(C)(C)C)n1", "IC50": "< 1"}
{"smiles": "Cc1ccc(C(N)=O)cc1Nc1nc(NC(C)C2CCCCC2)nc(N[C@H]2CCNC2)n1", "note": "(stereo partly specified)", "IC50": "< 1"}
{"smiles": "Cc1ccc(C(N)=O)cc1Nc1nc(N[C@H]2CCCC[C@H]2NC(=O)CO[C@H]2C[C@@H](C)CC[C@H]2C(C)C)nc(N(C)CC(C)C)n1", "IC50": "< 1"}
{"smiles": "CCONC(=O)c1ccc(C)c(Nc2nc(N)nc(N(C)CC(C)(C)C)n2)c1", "IC50": "< 1"}
{"smiles": "CNc1nc(Nc2ccc3ncsc3c2)nc(N[C@H](C)C2CCCCC2)n1", "IC50": "< 10"}
{"smiles": "CONC(=O)c1ccc(C)c(Nc2nc(NCCNc3ccccc3)nc(N(C)CC(C)(C)C)n2)c1", "IC50": "< 1"}
{"smiles": "CCONC(=O)c1ccc(C)c(Nc2nc(NC)cc(N(C)CC(C)(C)C)n2)c1", "IC50": "< 1"}
{"smiles": "Cc1ccc(CN2CC[C@H](Nc3nc(Nc4cc(C(N)=O)ccc4C)nc(N(C)CC(C)C)n3)C2)c(C)c1", "IC50": "< 1"}
{"smiles": "Cc1ccc(C(N)=O)cc1Nc1nc(Cl)nc(N[C@@H]2CCNC2)n1", "IC50": "< 1"}
{"smiles": "CC1(C)C2CCC(CNc3cc(Nc4ccc5ncsc5c4)nc(N4CCNCC4)n3)C1C2", "note": "(stereo unspecified)", "IC50": "< 10"}
{"smiles": "Cc1ccc(C(N)=O)cc1Nc1nc(NC[C@@H]2CC[C@H]3C[C@@H]2C3(C)C)nc(N[C@@H]2CCNC2)n1", "IC50": "< 1"}
{"smiles": "Cc1ccc(C(N)=O)cc1Nc1nc(N[C@H]2CCN(C(=O)c3ccccn3)C2)nc(N(C)CC(C)C)n1", "IC50": "< 1"}
{"smiles": "Cc1ccc(C(N)=O)cc1Nc1nc(N[C@H]2CCN(C(C#N)c3ccccc3)C2)nc(N(C)CC(C)(C)C)n1", "note": "(stereo partly specified)", "IC50": "< 1"}
{"smiles": "CNC(=O)c1ccc(C)c(Nc2nc(NC3CCN(Cc4ccccc4)C3)nc(N(C)CC(C)C)n2)c1", "note": "(stereo unspecified)", "IC50": "< 1"}
{"smiles": "Cc1ccc(C(N)=O)cc1Nc1nc(NC[C@H]2CCCN2)nc(N(C)CC(C)C)n1", "IC50": "< 1"}
{"smiles": "Cc1ccc(C(N)=O)cc1Nc1nc(O[C@H]2CCNC2)nc(N(C)CC(C)(C)C)n1", "IC50": "< 1"}
{"smiles": "CC1(C)[C@H]2CCC(COc3nc(Cl)nc(Nc4ccc5ncsc5c4)n3)[C@@H]1C2", "note": "(stereo partly specified)", "IC50": "< 10"}
